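Growth conditions: 96-well plates. Treatment: test compound, 48 hours, 5 concentrations. Analysis: linear interpolation between bracketing concentrations; unreached endpoints set to highest concentration. At the GI50, growth is halved. TGI marks complete inhibition of growth.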
Assays:
Assay in all cases: DTP human tumour cell line panel, 48 h
[1] = test system: UO-31 renal
[2] = test system: IGROV1 ovarian
[3] = test system: HT29 colon
[4] = test system: M14 melanoma
[5] = test system: SNB-19 CNS
[6] = test system: HCT-116 colon
[7] = test system: RXF 393 renal
[8] = test system: MCF7 breast
[9] = test system: T-47D breast
[10] = test system: DU-145 prostate

Structure (SMILES)	TGI [1]	TGI [2]	TGI [3]	TGI [4]	TGI [5]	TGI [6]	TGI [7]	TGI [8]	TGI [9]	TGI [10]	GI50 [2]	GI50 [3]	GI50 [6]	GI50 [8]	GI50 [4]	GI50 [9]	GI50 [7]	GI50 [5]	GI50 [10]	GI50 [1]
O=C1NC(c2ccccc2)(c2ccccc2)C(=O)N1CCCCCCN1C(=O)NC(c2ccccc2)(c2ccccc2)C1=O	> 100 µM	> 100 µM	> 100 µM	> 100 µM	72.1 µM	–	–	–	–	–	–	–	–	–	–	–	–	–	–	–
Cn1cc(-c2ccc3c4ccccc4n(C)c3c2)c2ccccc21	> 100 µM	> 100 µM	> 100 µM	> 100 µM	> 100 µM	> 100 µM	> 100 µM	–	–	–	–	–	–	–	–	–	–	–	–	–
N[C@H]1CCC[C@@H](O)C1O (stereo not given in full)	> 100 µM	> 100 µM	> 100 µM	> 100 µM	> 100 µM	> 100 µM	–	> 100 µM	> 100 µM	> 100 µM	–	–	–	–	–	–	–	–	–	–
O=C(c1ccc(Cl)cc1Cl)N1CCN(C(=O)c2ccc(Cl)cc2Cl)C1=S	–	46 µM	48.9 µM	30.2 µM	65.2 µM	57.5 µM	43 µM	36.7 µM	62.6 µM	98.9 µM	21 µM	20.4 µM	23.5 µM	18.3 µM	16.3 µM	19.5 µM	18.5 µM	24.9 µM	30.6 µM	–
O=C(n1c2ccccc2c2n[nH]c(=S)nc21)C(F)(F)F	> 100 µM	> 100 µM	> 100 µM	> 100 µM	> 100 µM	> 100 µM	> 100 µM	–	–	–	–	–	–	–	–	–	–	–	–	–
Cc1cccc(NC(=O)c2c(N)[n+]([O-])c3ccccc3[n+]2[O-])c1	32.6 µM	21.5 µM	27.7 µM	24.9 µM	29.3 µM	20.3 µM	13.3 µM	–	–	–	–	–	–	–	–	–	–	–	–	–
Cc1cc(NS(=O)(=O)c2ccc(NC(=O)c3ccc(Cl)c4c(Nc5ccc(S(=O)(=O)Nc6cc(C)on6)cc5)c5ccccc5nc34)cc2)no1	37.1 µM	49.7 µM	41.6 µM	49.4 µM	32.4 µM	27.4 µM	–	–	–	–	–	–	–	–	–	–	–	–	–	–
COc1ccc(-c2cc(=O)c3c(O)c(O)c(OC)cc3o2)cc1O	> 100 µM	> 100 µM	> 100 µM	> 100 µM	> 100 µM	> 100 µM	> 100 µM	–	–	–	–	–	–	–	–	–	–	–	–	–
COc1ccc(-c2cn(C)c3c2-n2cccc2C3=O)cc1O	> 100 µM	75.2 µM	> 100 µM	20.3 µM	–	26.5 µM	99.4 µM	20.3 µM	28.9 µM	32.9 µM	26.9 µM	18 µM	11.1 µM	0.806 µM	6.57 µM	4.78 µM	42.3 µM	–	12.5 µM	16.1 µM
CCOC(=O)c1ccc(N=Cc2ccc(N(CCC#N)S(=O)(=O)c3ccccc3)cc2C)cc1	> 100 µM	> 100 µM	> 100 µM	> 100 µM	> 100 µM	> 100 µM	–	–	–	–	–	–	–	–	–	–	–	–	–	–
C=CCCC(O)c1cc(C)c(O)c(C)c1 (stereo not given)	> 100 µM	> 100 µM	–	> 100 µM	> 100 µM	–	> 100 µM	–	–	–	–	–	–	–	–	–	–	–	–	–
COC(=O)NC1(NC(=O)OC)NC(=O)c2ccccc2N1	> 100 µM	> 100 µM	> 100 µM	> 100 µM	> 100 µM	> 100 µM	–	> 100 µM	> 100 µM	> 100 µM	–	–	–	–	–	–	–	–	–	–
CCCCC[C@@H]1CCCC2NC(CCCCCO[Si](c3ccccc3)(c3ccccc3)C(C)(C)C)CCC21 (stereo not given in full)	26.6 µM	32.9 µM	16.1 µM	27.3 µM	32.7 µM	23.7 µM	25.4 µM	–	–	–	–	–	–	–	–	–	–	–	–	–
O=C(NCCCN1CCN(CCCNC(=O)c2cccc3ccccc23)CC1)c1cccc2ccccc12	> 100 µM	> 100 µM	> 100 µM	> 100 µM	> 100 µM	> 100 µM	–	–	–	–	–	–	–	–	–	–	–	–	–	–
CC(C)(C)c1cc(C2c3cc4c(cc3OC(O)(CO)C2C(=O)O)OCO4)cc(C(C)(C)C)c1O (stereo not given) (tested in a mixture with another compound)	26.6 µM	48.6 µM	27.2 µM	30.7 µM	25.7 µM	21.2 µM	29.4 µM	–	–	–	–	–	–	–	–	–	–	–	–	–
CC(=O)/C=C1\CC(=O)N(C)c2ccccc2N1	> 100 µM	> 100 µM	> 100 µM	> 100 µM	> 100 µM	> 100 µM	> 100 µM	–	–	–	–	–	–	–	–	–	–	–	–	–
Cn1c(=O)nc2n(-c3ccc(Br)cc3)c3ccccc3nc-2c1=O	37.9 µM	28 µM	7.44 µM	15.5 µM	9.3 µM	16.3 µM	29 µM	–	–	–	–	–	–	–	–	–	–	–	–	–
O=c1[nH]c2nc3ccccc3c(=O)n2nc1Cc1ccccc1	> 100 µM	> 100 µM	> 100 µM	> 100 µM	> 100 µM	> 100 µM	–	–	–	–	–	–	–	–	–	–	–	–	–	–
O=C(c1ccccc1)c1nc2c(Cl)ccc(Cl)c2cc1C(Br)Br	2.56 µM	12.4 µM	–	2.89 µM	3.11 µM	1.56 µM	4.05 µM	–	–	–	–	–	–	–	–	–	–	–	–	–
O=C1OC(c2ccc([N+](=O)[O-])cc2)=N/C1=C\c1ccc(Cl)cc1	–	> 100 µM	> 100 µM	> 100 µM	> 100 µM	> 100 µM	> 100 µM	> 100 µM	> 100 µM	> 100 µM	–	–	–	–	–	–	–	–	–	–
CC(C)(C)OC(=O)NCCCCCCCCCn1c2c(c3ccccc3c1=O)C(=O)c1ccccc1-2	> 100 µM	> 100 µM	> 100 µM	> 100 µM	> 100 µM	–	> 100 µM	> 100 µM	> 100 µM	> 100 µM	36.1 µM	> 100 µM	–	90 µM	> 100 µM	78.9 µM	20.5 µM	28.2 µM	> 100 µM	> 100 µM
CN(C)CCNC(=O)c1ccc2c(c1)oc1cc3ccccc3c(=O)n12	30.8 µM	26.4 µM	40.4 µM	32.6 µM	48.7 µM	29.4 µM	36.6 µM	–	–	–	10.6 µM	18.1 µM	16 µM	–	18.6 µM	–	19.6 µM	25.9 µM	–	15.1 µM
CC(C)(C)OC(=O)N(CCCCN(CCCn1c2c(c3ccccc3c1=O)C(=O)c1ccccc1-2)C(=O)OC(C)(C)C)CCCn1c2c(c3ccccc3c1=O)C(=O)c1ccccc1-2	> 100 µM	–	> 100 µM	> 100 µM	> 100 µM	> 100 µM	–	–	> 100 µM	> 100 µM	–	54.6 µM	1.9 µM	–	31.3 µM	> 100 µM	–	72 µM	48.1 µM	28.4 µM
